According to patent US9938240B2, “Fluorinated derivatives of 3-hydroxypyridin-4-ones” (Apotex Technologies Inc., priority 2009, dated 2018):

Experiment: Benzoic acid hydroxylation assay
Conditions: benzoic acid 1 mM, H2O2 6 mM, FeCl3 30 μM, chelator 30 μM, pH 7.4, up to 81 h
Description: Benzoic acid is a hydroxyl radical scavenger and reacts with hydroxyl radical to give 2-hydroxy, 3-hydroxy and 4-hydroxybenzoic acids. The benzoic acid hydroxylation assay is a chemical assay designed to detect damage caused by hydroxyl radical (Dean and Nicholson, Free Radical Research 1994, vol 20, 83-101). For example, deferiprone suppresses the formation of hydroxybenzoic acids in the presence of iron salts and hydrogen peroxide, while EDTA and iron salts allow such hydroxylation reactions to take place.
This screening assay involves the use of iron salt, benzoic acid, hydrogen peroxide and the chelator and measures the ability of the chelator to inhibit the formation of hydroxybenzoate as an indicator to prevent hydroxyl radical formation in living system.
Briefly, this procedure is based on the ability of hydroxyl radicals to hydroxylate benzoate to give 2-, 3- and 4-hydroxylated benzoic acid products. Benzoic acid (1 mM) is incubated over time up to 81 h at room temperature in the dark in 10 mM phosphate buffer (pH 7.4) with 6 mM hydrogen peroxide, ferric chloride (30 μM) and the Fe chelator (30 μM). HPLC is the method of choice used to monitor and quantify the amount of 2-, 3- and 4-hydroxylated products formed over time in the reaction mixture, and can be verified against authentic benzoic acid and its hydroxylated products via their respective retention times and areas under curve. In addition, several controls are used: (i) a control without added Fe stock solution and Fe chelator; (ii) a control without added Fe chelator; (iii) EDTA as positive control; and (iv) deferiprone as negative control. The Fe-EDTA system is a hydroxyl radical generator and is known to promote hydroxylation of benzoic acid.

## CN(C)C(c1c(O)c(=O)ccn1C)C(F)(F)F (stereo not shown) [Apo7041, 2-[1-(dimethylamino)-2,2,2-trifluoroethyl]-3-hydroxy-1-methylpyridin-4(1H)-one]
  hydroxylation of benzoic acid by Fe chelate: do not promote the hydroxylation of benzoic acid
